What was measured:
Type in all cases: in vivo
[1] = system: Kochia (Kochia scoparia); experiment: Test A postemergence; conditions: Bassia scoparia, post-emergence, 240 h, 125 g ai/ha, postemergence; visual injury after approximately 10 d; 0 to 100 scale (0 no effect, 100 complete control); read-out: Plant response rating, Kochia
How it was run: (§1)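 Seeds sprayed preemergence with a directed soil spray, or plants at 2 to 10 cm height and one- to two-leaf stage sprayed postemergence, with test chemicals in a non-phytotoxic solvent mixture containing surfactant, in loam soil–sand blend. Injury rated visually against untreated controls after about 10 d in greenhouse, 0 (no effect) to 100 (complete control).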

[2] = system: giant foxtail (Setaria faberii); experiment: Test A postemergence; conditions: Setaria faberi, post-emergence, 240 h, 125 g ai/ha, postemergence; visual injury after approximately 10 d; 0 to 100 scale (0 no effect, 100 complete control); read-out: Plant response rating, Foxtail, Giant
How it was run: as §1

[3] = system: pigweed (Amaranthus retroflexus); experiment: Test A postemergence; conditions: Amaranthus retroflexus, post-emergence, 240 h, 125 g ai/ha, postemergence; visual injury after approximately 10 d; 0 to 100 scale (0 no effect, 100 complete control); read-out: Plant response rating, Pigweed
How it was run: as §1

[4] = system: ryegrass, Italian (Italian ryegrass, Lolium multiflorum); experiment: Test A postemergence; conditions: Lolium multiflorum, post-emergence, 240 h, 125 g ai/ha, postemergence; visual injury after approximately 10 d; 0 to 100 scale (0 no effect, 100 complete control); read-out: Plant response rating, Ryegrass, Italian
How it was run: as §1

[5] = system: sedge, umbrella (small-flower umbrella sedge, Cyperus difformis); experiment: Test B flooded paddy test; conditions: Cyperus difformis, Flood, 250 g ai/ha; scale of 0 to 100 where 0 is no effect and 100 is complete control; read-out: Sedge, Umbrella plant response rating
How it was run: (§2)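 Flooding to 3 cm over soil accompanied treatment, which consisted of adding compound to the standing water around 2-leaf plants; depth was then maintained. Visual assessment versus controls followed at 13 to 15 d (scale 0–100, 0 meaning no effect).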

[6] = system: barnyardgrass (Echinochloa crus-galli); experiment: Test B flooded paddy test; conditions: Echinochloa crus-galli, Flood, 250 g ai/ha; scale of 0 to 100 where 0 is no effect and 100 is complete control; read-out: Barnyardgrass plant response rating
How it was run: as §2

[7] = system: rice (Oryra sativa); experiment: Test B flooded paddy test; conditions: Oryza sativa, Flood, 250 g ai/ha; scale of 0 to 100 where 0 is no effect and 100 is complete control; read-out: Rice plant response rating
How it was run: as §2

[8] = system: ducksalad (Heteranthera limosa); experiment: Test B flooded paddy test; conditions: Heteranthera limosa, Flood, 250 g ai/ha; scale of 0 to 100 where 0 is no effect and 100 is complete control; read-out: Ducksalad plant response rating
How it was run: as §2

[9] = system: Kochia (Kochia scoparia); experiment: Test A preemergence; conditions: Bassia scoparia, pre-emergence, 240 h, preemergence, read-out: Plant response rating, Kochia; for pest or weed control at 125 g/ha: 125 g ai/ha, visual rating after approx. 10 d, 0 to 100 scale where 0 is no effect and 100 is complete control; for pest or weed control at 500 g/ha: 500 g ai/ha, 0 to 100 scale, 0 = no effect, 100 = complete control
How it was run: as §1

[10] = system: barnyardgrass (Echinochloa crus-galli); experiment: Test A preemergence; conditions: Echinochloa crus-galli, pre-emergence, 240 h, preemergence, read-out: Plant response rating, Barnyardgrass; for pest or weed control at 125 g/ha: 125 g ai/ha, visual rating after approx. 10 d, 0 to 100 scale where 0 is no effect and 100 is complete control; for pest or weed control at 500 g/ha: 500 g ai/ha, 0 to 100 scale, 0 = no effect, 100 = complete control
How it was run: as §1

[11] = system: giant foxtail (Setaria faberii); experiment: Test A preemergence; conditions: Setaria faberi, pre-emergence, 240 h, preemergence, read-out: Plant response rating, Foxtail, Giant; for pest or weed control at 125 g/ha: 125 g ai/ha, visual rating after approx. 10 d, 0 to 100 scale where 0 is no effect and 100 is complete control; for pest or weed control at 500 g/ha: 500 g ai/ha, 0 to 100 scale, 0 = no effect, 100 = complete control
How it was run: as §1

[12] = system: pigweed (Amaranthus retroflexus); experiment: Test A preemergence; conditions: Amaranthus retroflexus, pre-emergence, 240 h, preemergence, read-out: Plant response rating, Pigweed; for pest or weed control at 125 g/ha: 125 g ai/ha, visual rating after approx. 10 d, 0 to 100 scale where 0 is no effect and 100 is complete control; for pest or weed control at 500 g/ha: 500 g ai/ha, 0 to 100 scale, 0 = no effect, 100 = complete control
[13] = system: ryegrass, Italian (Italian ryegrass, Lolium multiflorum); experiment: Test A preemergence; conditions: Lolium multiflorum, pre-emergence, 240 h, preemergence, read-out: Plant response rating, Ryegrass, Italian; for pest or weed control at 125 g/ha: 125 g ai/ha, visual rating after approx. 10 d, 0 to 100 scale where 0 is no effect and 100 is complete control; for pest or weed control at 500 g/ha: 500 g ai/ha, 0 to 100 scale, 0 = no effect, 100 = complete control
How it was run: as §1

[14] = system: ragweed (common ragweed, Ambrosia elatior); experiment: Test A preemergence; conditions: Ambrosia artemisiifolia, pre-emergence, 240 h, preemergence, read-out: Plant response rating, Ragweed; for pest or weed control at 125 g/ha: 125 g ai/ha, visual rating after approx. 10 d, 0 to 100 scale where 0 is no effect and 100 is complete control; for pest or weed control at 500 g/ha: 500 g ai/ha, 0 to 100 scale, 0 = no effect, 100 = complete control
How it was run: as §1

Cc1ccc([C@H]2CN(C)C(=O)[C@@H]2C(=O)Nc2cccc(F)c2F)c(F)c1 [Compound 730]
pest or weed control at 125 g/ha [1]: 70%
pest or weed control at 125 g/ha [2]: 90%
pest or weed control at 125 g/ha [3]: 20%
pest or weed control at 125 g/ha [4]: 40%
pest or weed control at 250 g/ha [5]: 0%
pest or weed control at 250 g/ha [6]: 75%
pest or weed control at 250 g/ha [7]: 0%
pest or weed control at 250 g/ha [8]: 95%
pest or weed control at 125 g/ha [9]: 70%
pest or weed control at 500 g/ha [9]: 80%
pest or weed control at 125 g/ha [10]: 90%
pest or weed control at 500 g/ha [10]: 100%
pest or weed control at 125 g/ha [11]: 90%
pest or weed control at 500 g/ha [11]: 100%
pest or weed control at 125 g/ha [12]: 30%
pest or weed control at 500 g/ha [12]: 50%
pest or weed control at 125 g/ha [13]: 20%
pest or weed control at 500 g/ha [13]: 70%
pest or weed control at 125 g/ha [14]: 50%
pest or weed control at 500 g/ha [14]: 60%

Cc1ccc([C@H]2CN(C)C(=O)[C@@H]2C(=O)Nc2ccccc2S(C)(=O)=O)cc1C [Compound 734]
pest or weed control at 125 g/ha [1]: 0%
pest or weed control at 125 g/ha [2]: 90%
pest or weed control at 125 g/ha [3]: 0%
pest or weed control at 125 g/ha [4]: 20%
pest or weed control at 250 g/ha [5]: 0%
pest or weed control at 250 g/ha [6]: 60%
pest or weed control at 250 g/ha [7]: 0%
pest or weed control at 250 g/ha [8]: 100%
pest or weed control at 125 g/ha [9]: 20%
pest or weed control at 500 g/ha [9]: 90%
pest or weed control at 125 g/ha [10]: 90%
pest or weed control at 500 g/ha [10]: 100%
pest or weed control at 125 g/ha [11]: 90%
pest or weed control at 500 g/ha [11]: 100%
pest or weed control at 125 g/ha [12]: 20%
pest or weed control at 500 g/ha [12]: 80%
pest or weed control at 125 g/ha [13]: 40%
pest or weed control at 500 g/ha [13]: 90%
pest or weed control at 125 g/ha [14]: 20%
pest or weed control at 500 g/ha [14]: 50%

CCc1cc(CC)cc([C@H]2CN(C)C(=O)[C@@H]2C(=O)Nc2ccccc2F)c1 [Compound 735]
pest or weed control at 125 g/ha [1]: 30%
pest or weed control at 125 g/ha [2]: 90%
pest or weed control at 125 g/ha [3]: 20%
pest or weed control at 125 g/ha [4]: 60%
pest or weed control at 250 g/ha [5]: 0%
pest or weed control at 250 g/ha [6]: 60%
pest or weed control at 250 g/ha [7]: 0%
pest or weed control at 250 g/ha [8]: 40%
pest or weed control at 125 g/ha [9]: 20%
pest or weed control at 500 g/ha [9]: 80%
pest or weed control at 125 g/ha [10]: 90%
pest or weed control at 500 g/ha [10]: 90%
pest or weed control at 125 g/ha [11]: 90%
pest or weed control at 500 g/ha [11]: 90%
pest or weed control at 125 g/ha [12]: 0%
pest or weed control at 500 g/ha [12]: 20%
pest or weed control at 125 g/ha [13]: 80%
pest or weed control at 500 g/ha [13]: 90%
pest or weed control at 125 g/ha [14]: 0%
pest or weed control at 500 g/ha [14]: 0%

CCc1cc(CC)cc([C@H]2CN(C)C(=O)[C@@H]2C(=O)Nc2cccc(F)c2F)c1 [Compound 736]
pest or weed control at 125 g/ha [1]: 20%
pest or weed control at 125 g/ha [2]: 90%
pest or weed control at 125 g/ha [3]: 20%
pest or weed control at 125 g/ha [4]: 80%
pest or weed control at 250 g/ha [5]: 0%
pest or weed control at 250 g/ha [6]: 40%
pest or weed control at 250 g/ha [7]: 0%
pest or weed control at 250 g/ha [8]: 40%
pest or weed control at 125 g/ha [9]: 20%
pest or weed control at 500 g/ha [9]: 70%
pest or weed control at 125 g/ha [10]: 90%
pest or weed control at 500 g/ha [10]: 90%
pest or weed control at 125 g/ha [11]: 90%
pest or weed control at 500 g/ha [11]: 90%
pest or weed control at 125 g/ha [12]: 0%
pest or weed control at 500 g/ha [12]: 20%
pest or weed control at 125 g/ha [13]: 90%
pest or weed control at 500 g/ha [13]: 90%
pest or weed control at 125 g/ha [14]: 0%
pest or weed control at 500 g/ha [14]: 20%

CN1C[C@H](c2ccc(F)c(OC(F)(F)C(F)F)c2)[C@@H](C(=O)Nc2ccccc2F)C1=O [Compound 740]
pest or weed control at 125 g/ha [1]: 40%
pest or weed control at 125 g/ha [2]: 90%
pest or weed control at 125 g/ha [3]: 40%
pest or weed control at 125 g/ha [4]: 50%
pest or weed control at 250 g/ha [5]: 0%
pest or weed control at 250 g/ha [6]: 60%
pest or weed control at 250 g/ha [7]: 50%
pest or weed control at 250 g/ha [8]: 100%
pest or weed control at 125 g/ha [9]: 80%
pest or weed control at 500 g/ha [9]: 90%
pest or weed control at 125 g/ha [10]: 90%
pest or weed control at 500 g/ha [10]: 90%
pest or weed control at 125 g/ha [11]: 100%
pest or weed control at 500 g/ha [11]: 100%
pest or weed control at 125 g/ha [12]: 70%
pest or weed control at 500 g/ha [12]: 80%
pest or weed control at 125 g/ha [13]: 60%
pest or weed control at 500 g/ha [13]: 80%
pest or weed control at 125 g/ha [14]: 40%
pest or weed control at 500 g/ha [14]: 50%

CN1C[C@H](c2cccc(C(F)(F)F)c2)[C@@H](C(=O)Nc2ccccc2C2CC2)C1=O [Compound 749]
pest or weed control at 125 g/ha [1]: 0%
pest or weed control at 125 g/ha [2]: 0%
pest or weed control at 125 g/ha [3]: 0%
pest or weed control at 125 g/ha [4]: 0%
pest or weed control at 250 g/ha [5]: 0%
pest or weed control at 250 g/ha [6]: 0%
pest or weed control at 250 g/ha [7]: 0%
pest or weed control at 250 g/ha [8]: 20%
pest or weed control at 125 g/ha [9]: 0%
pest or weed control at 500 g/ha [9]: 20%
pest or weed control at 125 g/ha [10]: 0%
pest or weed control at 500 g/ha [10]: 20%
pest or weed control at 125 g/ha [11]: 50%
pest or weed control at 500 g/ha [11]: 90%
pest or weed control at 125 g/ha [12]: 0%
pest or weed control at 500 g/ha [12]: 0%
pest or weed control at 125 g/ha [13]: 0%
pest or weed control at 500 g/ha [13]: 20%
pest or weed control at 125 g/ha [14]: 0%
pest or weed control at 500 g/ha [14]: 0%

O=C1NC[C@H](c2csc3ccccc23)[C@H]1C(=O)Nc1ccccc1F [Compound 750]
pest or weed control at 125 g/ha [1]: 0%
pest or weed control at 125 g/ha [2]: 20%
pest or weed control at 125 g/ha [3]: 0%
pest or weed control at 125 g/ha [4]: 0%
pest or weed control at 250 g/ha [5]: 0%
pest or weed control at 250 g/ha [6]: 0%
pest or weed control at 250 g/ha [7]: 0%
pest or weed control at 250 g/ha [8]: 90%
pest or weed control at 125 g/ha [9]: 0%
pest or weed control at 500 g/ha [9]: 0%
pest or weed control at 125 g/ha [10]: 80%
pest or weed control at 500 g/ha [10]: 90%
pest or weed control at 125 g/ha [11]: 50%
pest or weed control at 500 g/ha [11]: 90%
pest or weed control at 125 g/ha [12]: 0%
pest or weed control at 500 g/ha [12]: 0%
pest or weed control at 125 g/ha [13]: 0%
pest or weed control at 500 g/ha [13]: 20%
pest or weed control at 125 g/ha [14]: 0%
pest or weed control at 500 g/ha [14]: 0%
